Assay [1] deals with PKCε−/− and PKCε+/+ mice. The experiment in a line: locomotor activity in activity chambers after intraperitoneal injection. It counts as in vivo, mouse. The following applies: for locomotor response (distance traveled), PKCε−/− compared to PKCε+/+: i.p.: diazepam 0.5, 1.5, 4.0 mg/kg, muscimol 0.1, 0.2, 0.4 mg/kg, MK-801 0.01, 0.02, 0.03 mg/kg.
The next assay has as its system GABAA receptor. The experiment in a line: 36Cl− uptake in cortical microsacs from PKCε−/− and PKCε+/+ mice (GABAA receptor function). Conditions: for activation of GABAA receptors (muscimol-stimulated Cl− uptake): 10^−12M to 10^−9M, 1 μM muscimol. It counts as biochemical, mouse.
Assay [2] deals with PKCε−/− and PKCε+/+ mice. As to the kind of experiment: loss of righting reflex (LORR) after intraperitoneal injection. The assay is classed as in vivo, mouse. The following applies: for LORR duration / sensitivity to sedative effects, PKCε−/− compared to wild-type: Example 3, earlier experiment, sedative doses of pentobarbital.
Assay [3] deals with PKCε−/− and PKCε+/+ mice. The following applies: two weeks liquid diet containing 5% ethanol; 2, 4, 6, 7 hours after removal. The method, then:
Withdrawal seizures known as handling-induced convulsions (HIC) can be induced in mice by handling them after chronic exposure to ethanol. […] Withdrawal seizures were evaluated in 4 PKCε^+/+ and 4 PKCε^−/− mice following two weeks exposure to a fully nutritious liquid diet containing 5% ethanol (Dyets, Bethlehem, Pa.) as the only source of food or fluid. Seizures were videotaped at 2, 4, 6, and 7 hours following removal of ethanol from the cage and rated by observers who were blind to the genotype and drug exposure. Data were averaged across time-points and mice.

Assay [4] has as its system PKCε−/− and PKCε+/+ mice. The following applies: 2-14% ethanol vs water, two-bottle choice.
In assay [5] the test system is PKCε−/− and PKCε+/+ mice. The following applies: 2.0 g/kg i.p. The method, then: Probes were perfused with artificial cerebrospinal fluid (aCSF), and animals were allowed to recover overnight. Mice were placed in open field chambers equipped with photobeams, and dialysis sample tubes were changed at 10 min intervals.
Another assay concerns PKCε. As to the kind of experiment: muscimol/flunitrazepam-stimulated 36Cl− uptake in saponin-permeabilized microsacs treated with PKCε inhibitor peptide. It counts as biochemical, mouse. The following applies: for effect of peptide on the enhancing effect of flunitrazepam on muscimol-stimulated Cl− uptake: wild-type microsacs, 100 μM peptide, 1 μM muscimol and 0.1 μM flunitrazepam, 5 seconds. The method, then:
GABAA receptor function was tested directly in wild-type and mutant mice. […] Following a five minute incubation in a shaking water bath at 34° C., chloride uptake in 200 μl membrane aliquots was initiated by the addition and immediate vortexing of 200 μl of a solution containing […] (0.2 μCi/ml of assay buffer). Drugs (muscimol, flunitrazepam, or ethanol) were added only in the ^36Cl^− solution. […] Hg) onto a 2.5 cm Whatman GF/C glass microfiber filter, using a Hoefer manifold (Hoefer Scientific, San Francisco, Calif.). The filters were washed with an additional 12 ml of cold assay buffer. Filters were submerged in Filtron-X (National Diagnostics) and the amount of radioactivity on the filters was determined by liquid scintillation spectrometry. Muscimol-dependent uptake was defined as the total amount of ^36Cl^− taken up while muscimol was present in the medium minus the amount of ^36Cl^− taken up when muscimol was not present.
Microsacs were then centrifuged again at 900× g for 15 min at 4° C. and re-suspended in assay buffer with protease inhibitors at 5 mg/ml immediately prior to assaying ^36Cl^− uptake.

[6] abbreviates: ethanol 3.2, 3.6, 4.0 g/kg i.p.

Read-outs that look alike come from different tables or passages of the source.

Regarding `C[C@]12N[C@H](Cc3ccccc31)c1ccccc12` [MK-801], in the assay with PKCε−/− and PKCε+/+ mice [1], the “locomotor response (distance traveled), PKCε−/− compared to PKCε+/+” value (“locomotor response … compared to PKCε+/+” below) was “No differences”.
Take `CC(=O)[C@H]1CC[C@H]2[C@@H]3CC[C@H]4C[C@H](O)CC[C@]4(C)[C@H]3CC[C@]12C` [allopregnanolone, 3alpha-hydroxy-5alpha-pregnan-20-one]: the “activation of GABAA receptors (muscimol-stimulated Cl− uptake)” value with GABAA receptor (microsacs from PKCε+/+ mice) was “comparatively little effect”; in the assay with GABAA receptor (microsacs from PKCε−/− mice), “substantially activate”.
In the case of `CN1C(=O)CN=C(c2ccccc2)c2cc(Cl)ccc21` [diazepam], in the assay with PKCε−/− and PKCε+/+ mice [1], the “locomotor response … compared to PKCε+/+” value is on record as “significant increase in distance traveled”. Moreover, the “sensitivity to sedative effects (LORR), PKCε−/− compared to PKCε+/+” value in the assay on PKCε−/− and PKCε+/+ mice [2] (diazepam 20, 30, 40 mg/kg i.p., Example 6) is listed as 30 fold.
Regarding `CCO` [ethanol], the “increase in locomotor activity, PKCε−/− compared to PKCε+/+” value in the assay on PKCε−/− and PKCε+/+ mice [1] (male mice, 2 g/kg ethanol i.p., 15-minute period) is “two-fold greater increase”. Besides, the “reduction in withdrawal seizure severity (HIC score) compared to wildtype littermates” value with PKCε−/− and PKCε+/+ mice [3] is given as 50%. The “reduction in ethanol preference, PKCε−/− compared to PKCε+/+” value in the assay with PKCε−/− and PKCε+/+ mice [4] is reported as 75%. For the same compound, the “LORR duration / sensitivity to sedative effects, PKCε−/− compared to wild-type” value in the assay with PKCε−/− and PKCε+/+ mice [2] (setting [6]) was “significantly higher LORR duration”. Moreover, in the assay on PKCε−/− and PKCε+/+ mice [2] (ethanol 3.2, 3.6, 4.0 g/kg i.p., Example 5), the “time required to regain righting reflex (LORR duration), PKCε−/− compared to PKCε+/+” value is recorded as “two-fold increase”. In addition, the “extracellular dopamine levels in nucleus accumbens after administration” value with PKCε−/− and PKCε+/+ mice [5] (PKCε+/+ mice) was “transient increase in dopamine levels”; in the assay with PKCε−/− and PKCε+/+ mice [5] (PKCε−/− mice), “No change in dopamine levels”. Moreover, the “enhancement of muscimol-stimulated Cl− uptake, PKCε−/− microsacs compared to wild-type” value with GABAA receptor (1 μM muscimol with 20 mM ethanol or 0.1 μM flunitrazepam) is given as “two-fold greater”.
As for `NCc1cc(=O)[nH]o1` [muscimol], the “locomotor response … compared to PKCε+/+” value in the assay on PKCε−/− and PKCε+/+ mice [1] is given as “indistinguishable”. In addition, the “Cl− uptake stimulated by direct agonist, knockout compared to wild-type” value in the assay on GABAA receptor (0-20 μM muscimol, 5 seconds) is “similar”.
Consider `CCCC(C)C1(CC)C(=O)NC(=O)NC1=O` (centres unmarked) [pentobarbital], for which, in the assay with PKCε−/− and PKCε+/+ mice [2] (setting [6]), the “LORR duration / sensitivity to sedative effects, PKCε−/− compared to wild-type” value is “two-fold greater sensitivity”. Moreover, the “sensitivity to sedative effects (LORR), PKCε−/− compared to control mice” value with PKCε−/− and PKCε+/+ mice [2] (pentobarbital 30, 40, 50 mg/kg i.p., Example 6) is listed as “three-fold greater sensitivity”.
Take “S-εV1-2: scrambled version of the εV1-2 peptide, LSETKPAV”: in the assay on PKCε, the “effect of peptide on the enhancing effect of flunitrazepam on muscimol-stimulated Cl− uptake” value is recorded as “no effect”.
“εV1-2: selective inhibitor of PKCε, peptide EAVSLKPT”: the “effect of peptide on muscimol and flunitrazepam-stimulated 36Cl− uptake” value in the assay with PKCε (microsacs from PKCε−/− mice) is “did not affect”. The “effect of peptide on the enhancing effect of flunitrazepam on muscimol-stimulated Cl− uptake” value in the assay on PKCε is reported as “markedly increased”.

The values above are taken from US7534859B2, “Protein kinase C epsilon as modulator of anxiety, alcohol consumption and self-administration of drugs of abuse” (The Regents of the University of California, priority 1998, dated 2009).
